Measurements taken from US11977067B2 (Radius Health, Inc., priority 2017, dated 2024).
Several values for one entry are separate records, joined by “and”; a condition that tells them apart may be missing. Identical values can stand only once. Each block holds one compound with its values, some of them ahead of it.

What was measured:
[1] = molecular target: T1, PTH receptors (Homo sapiens, UniProt Q03431); assay: qualified cell base potency assay for functional PTH activity (cAMP production); assay type: cell-based
T1 sequence (Q03431 27-593): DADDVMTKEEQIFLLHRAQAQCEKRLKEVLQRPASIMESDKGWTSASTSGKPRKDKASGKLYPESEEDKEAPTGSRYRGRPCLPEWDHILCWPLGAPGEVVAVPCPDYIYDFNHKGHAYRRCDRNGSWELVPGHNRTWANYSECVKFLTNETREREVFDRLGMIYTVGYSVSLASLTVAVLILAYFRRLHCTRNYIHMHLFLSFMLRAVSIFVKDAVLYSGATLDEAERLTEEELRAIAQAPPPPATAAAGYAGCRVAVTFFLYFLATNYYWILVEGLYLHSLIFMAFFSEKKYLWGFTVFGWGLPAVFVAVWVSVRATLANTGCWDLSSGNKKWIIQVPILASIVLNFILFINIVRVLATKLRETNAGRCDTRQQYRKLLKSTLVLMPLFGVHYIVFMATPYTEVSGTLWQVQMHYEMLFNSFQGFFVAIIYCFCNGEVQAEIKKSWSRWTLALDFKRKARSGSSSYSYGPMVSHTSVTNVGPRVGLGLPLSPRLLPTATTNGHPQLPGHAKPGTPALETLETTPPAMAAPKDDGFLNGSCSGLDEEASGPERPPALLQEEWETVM

[2] = (beta-Asp10) abaloparatide levels in formulated registration batches at different storage conditions; assay type: physicochemical
[3] = rate constants and Arrhenius analysis of (beta-Asp10) abaloparatide formation; assay type: physicochemical
Procedure: Rate constants at each temperature are tabulated in the top row of Table 18.
An Arrhenius plot was constructed (FIG. 8) by plotting the natural logarithm of the rate constants (k) for three storage temperatures, against the reciprocals of those temperatures in Kelvin. […] The activation energy, Ea, derived with high accuracy from the slope of a linear regression best fit of the Arrhenius plot is Ea=91,670 J/mol. […] For example, the observed rate constant at 5° C., Kobs=0.0655%/month agrees well with the predicted value, Kcalc=0.0644%/month, with only a 0.0011% absolute difference and a 1.7% relative difference.
The amount of b-Asp10 in the API must be determined with rigor and set accordingly to achieve the desired stability profile after pre-specified storage conditions. Previously, this could not be done as the methods used were insufficient for its identification and quantification. Therefore, not only has a new degradant been discovered but the methods described herein have allowed the formation rate equation to be determined and thus allow for setting its specification in the API when coupled with a desired storage stability profile. […] Similarly, the API, once formulated into cartridges is tested for purity including evaluation for (b-Asp10) right after the cartridge is formulated. This is also an important evaluation point for (b-Asp10) because the formulation itself requires time to complete mixing and filling prior to refrigeration.

agonist on PTH receptors [1]: active per se as an agonist
EC50 ([1]; production of cAMP as a measure of bioactivity): 0.832 nM
(beta-Asp10) abaloparatide level (mean) in formulated samples ([2]; 5° C. long term storage condition, 0 M): 0.3%
(beta-Asp10) abaloparatide level (mean) in formulated samples ([2]; 5° C. long term storage condition, 3 M): 0.5%
(beta-Asp10) abaloparatide level (mean) in formulated samples ([2]; 5° C. long term storage condition, 6 M): 0.76%
(beta-Asp10) abaloparatide level (mean) in formulated samples ([2]; 5° C. long term storage condition, 9 M): 0.96%
(beta-Asp10) abaloparatide level (mean) in formulated samples ([2]; 5° C. long term storage condition, 12 M): 1.03%
(beta-Asp10) abaloparatide level (mean) in formulated samples ([2]; 5° C. long term storage condition, 18 M): 1.66%
(beta-Asp10) abaloparatide level (mean) in formulated samples ([2]; 5° C. long term storage condition, 24 M): 1.93%
(beta-Asp10) abaloparatide level (mean) in formulated samples ([2]; 25° C. accelerated condition, 0 M): 0.3%
(beta-Asp10) abaloparatide level (mean) in formulated samples ([2]; 25° C. accelerated condition, 1 M): 1.26%
(beta-Asp10) abaloparatide level (mean) in formulated samples ([2]; 25° C. accelerated condition, 3 M): 3.26%
(beta-Asp10) abaloparatide level (mean) in formulated samples ([2]; 25° C. accelerated condition, 6 M): 6.3%
(beta-Asp10) abaloparatide level (mean) in formulated samples ([2]; 25° C. accelerated condition, 9 M): 9.43%
(beta-Asp10) abaloparatide level (mean) in formulated samples ([2]; 25° C. accelerated condition, 12 M): 11.96%
(beta-Asp10) abaloparatide level (mean) in formulated samples ([2]; 25° C. accelerated condition, 18 M): 16.73%
(beta-Asp10) abaloparatide level (mean) in formulated samples ([2]; 25° C. accelerated condition, 24 M): 20.73%
(beta-Asp10) abaloparatide level (mean) in formulated samples ([2]; 40° C. stress condition, 0 M): 0.3%
(beta-Asp10) abaloparatide level (mean) in formulated samples ([2]; 40° C. stress condition, 1 M): 7.10%
(beta-Asp10) abaloparatide level (mean) in formulated samples ([2]; 40° C. stress condition, 3 M): 18.76%
(beta-Asp10) abaloparatide level (mean) in formulated samples ([2]; 40° C. stress condition, 6 M): 32.9%
SMILES: CC[C@H](C)[C@H](NC(=O)[C@H](CO)NC(=O)[C@H](CCCCN)NC(=O)CNC(=O)[C@H](CCCCN)NC(=O)C[C@H](NC(=O)[C@H](Cc1c[nH]cn1)NC(=O)[C@H](CC(C)C)NC(=O)[C@H](CC(C)C)NC(=O)[C@H](CCC(N)=O)NC(=O)[C@H](Cc1c[nH]cn1)NC(=O)[C@H](CCC(=O)O)NC(=O)[C@H](CO)NC(=O)[C@@H](NC(=O)[C@H](C)N)C(C)C)C(=O)O)C(=O)N[C@@H](CCC(N)=O)C(=O)N[C@@H](CC(=O)O)C(=O)N[C@@H](CC(C)C)C(=O)N[C@@H](CCCNC(=N)N)C(=O)N[C@@H](CCCNC(=N)N)C(=O)N[C@@H](CCCNC(=N)N)C(=O)N[C@@H](CCC(=O)O)C(=O)N[C@@H](CC(C)C)C(=O)N[C@@H](CC(C)C)C(=O)N[C@@H](CCC(=O)O)C(=O)N[C@@H](CCCCN)C(=O)N[C@@H](CC(C)C)C(=O)N[C@@H](CC(C)C)C(=O)NC(C)(C)C(=O)N[C@@H](CCCCN)C(=O)N[C@@H](CC(C)C)C(=O)N[C@@H](Cc1c[nH]cn1)C(=O)N[C@H](C(=O)N[C@@H](C)C(N)=O)[C@@H](C)O [(beta-Asp10) abaloparatide, [b-Asp^10, Glu^22,25, Leu^23,28,31, Aib^29, Lys^26,30]hPTHrP(1-34)NH2)]
Difference (%) between kobs and Kcalc (relative difference) ([3]; 5° C.): 2.3%
Kcalc (%/month), rate constant calculated from activation energy ([3]; 5° C.): 0.0644 %/month and 0.0674 %/month
absolute difference between Kobs and Kcalc ([3]; 5° C.): 0.0011%
kobs (%/month), observed rate constant for formation of (beta-Asp10) abaloparatide ([3]; 5° C.): 0.0655 %/month and 0.0690 %/month
Difference (%) between kobs and Kcalc ([3]; 25° C.): −5.6%
Kcalc (%/month), rate constant calculated from activation energy ([3]; 25° C.): 0.938 %/month
kobs (%/month), observed rate constant for formation of (beta-Asp10) abaloparatide ([3]; 25° C.): 0.993 %/month
Difference (%) between kobs and Kcalc ([3]; 40° C.): 3.5%
Kcalc (%/month), rate constant calculated from activation energy ([3]; 40° C.): 5.19 %/month
kobs (%/month), observed rate constant for formation of (beta-Asp10) abaloparatide ([3]; 40° C.): 5.38 %/month
activation energy, Ea ([3]; slope of linear regression of Arrhenius plot, 5° C. to 40° C.): 91,670 J/mol

SMILES: CC[C@H](C)[C@H](NC(=O)[C@H](CO)NC(=O)[C@H](CCCCN)NC(=O)CNC(=O)[C@H](CCCCN)NC(=O)[C@H](CC(=O)O)NC(=O)[C@H](Cc1c[nH]cn1)NC(=O)[C@H](CC(C)C)NC(=O)[C@H](CC(C)C)NC(=O)[C@H](CCC(N)=O)NC(=O)[C@H](Cc1c[nH]cn1)NC(=O)[C@H](CCC(=O)O)NC(=O)[C@H](CO)NC(=O)[C@@H](NC(=O)[C@H](C)N)C(C)C)C(=O)N[C@@H](CCC(N)=O)C(=O)N[C@@H](CC(=O)O)C(=O)N[C@@H](CC(C)C)C(=O)N[C@@H](CCCNC(=N)N)C(=O)N[C@@H](CCCNC(=N)N)C(=O)N[C@@H](CCCNC(=N)N)C(=O)N[C@@H](CCC(=O)O)C(=O)N[C@@H](CC(C)C)C(=O)N[C@@H](CC(C)C)C(=O)N[C@@H](CCC(=O)O)C(=O)N[C@@H](CCCCN)C(=O)N[C@@H](CC(C)C)C(=O)N[C@@H](CC(C)C)C(=O)NC(C)(C)C(=O)N[C@@H](CCCCN)C(=O)N[C@@H](CC(C)C)C(=O)N[C@@H](Cc1c[nH]cn1)C(=O)N[C@H](C(=O)N[C@@H](C)C(N)=O)[C@@H](C)O [abaloparatide, [Glu^22,25, Leu^23,28,31, Aib^29, Lys^26,30]hPTHrP(1-34)NH2)]
kinetic order of isomerization of abaloparatide to (beta-Asp10) isomer ([3]; formulated drug product): zero order kinetics
